# According to paper PMC8543028 (Infection and Drug Resistance, 2021):
# Key:
# [1] = test system: M. tuberculosis H37Rv ATCC 27294 reference strain; type: cell-based, Mycobacterium tuberculosis
# [2] = test system: M. tuberculosis H37Ra; type: cell-based, Mycobacterium tuberculosis
smiles,measurement,setting,value
"O=[N+]([O-])c1ccc(/C(O)=C/C(=S)S)cc1 [Compound 11e, (Z)-3-hydroxy-3-(4-nitrophenyl)-prop-2-enedithioic acid]",inhibitory activity compared with 11a,[1],eight times that of 11a
same,MIC100 in H37Ra,[2],active
